The test system of data set [1] is skin and eye mucous membrane. As to conditions: content of chlorine dioxide 9.7˜11.4 mg/L; 48 h; cited from earlier work.
Data set [2] concerns GFAP-positive cells (astrocytes), NeuN-positive cells (immature neurons). Description: NeuN-positive, GFAP-positive and BrdU-positive/GFAP-positive cells in the SVZ region. Format: in vivo, Sprague-Dawley rats. The procedure: (§1) Male Sprague-Dawley rats with the age of 12 weeks and weight of 250^˜280 g were used in the experiment after acclimating for a week.
(§2) A middle cerebral artery occlusion model was first established in compliance with the method of Longa E Z et al. (Longa E Z, et al. Reversible middle cerebral artery occlusion without craniectomy in rats. Stroke 20:84-91, 1989). More specifically, 0.36 g/kg of 10% chloral hydrate was administered intraperitoneally to rats which had been fasted for 12 hours (although given free access to water) to anesthetize the rats. Next, a midline incision was made in the neck to expose the right common carotid artery. Then, the internal carotid artery and external carotid artery were separated, the posterior carotid artery, which is a branch of the external carotid artery, and the thyroidea arteria were coagulated and severed, the external carotid artery was ligated at the branch of the lingual artery and maxillary artery, a small puncture was formed in the external carotid artery, 4-0 Nylon suture was passed through the common carotid artery from the puncture, and gradually inserted into the internal carotid artery until there was resistance. The length of the Nylon suture was about 18^˜20 mm from the branch of the common carotid artery. As a result of occluding the middle cerebral artery with Nylon suture, an ischemic state was applied for 2 hours to create a middle cerebral artery occlusion model.
(§3) A cerebral ischemia/reperfusion injury model was established by removing the Nylon suture from the middle cerebral artery of the occlusion model and following reperfusion of blood.
(§4) The first solution was a mixed solution made of sodium chlorite with the concentration of 7.47% and sodium chloride with the concentration of 1.59% with deionized water; the second solution was made of citric acid with the concentration of 16.7% with deionized water. Same volume of solutions were taken out from different vessels with different volumes and mixed up. Allow the solution to mix for 3-5 minutes and dilute it five times with normal saline, and then filter it with 0.22 μm filter membrane of double-deck. The solution was immediately put into injector. The solution was prepared once being used.
(§5) Treatment group (120 rats): A cerebral ischemia/reperfusion injury model was established for the rats already. To administer chlorine dioxide solution everytime that prepared from procedure (3) through carotid artery after the second day the model has established, once a day for total ten days.
On day 5, 6, 12, 13, 19 and 20 after the model established, 50 mg/kg BrdU was injected intraperitoneally into 30 rats in each group. The rats were autopsied on day 7, 14 and 21 after the model established for preparation of frozen brain sections. The presences of NeuN-positive cells by immunochemical stain, glial fibrillory acidic protein (GFAP)-positive cells by immunochemical stain, and BrdU-Positive/GFAP Positive Cells by double-immunofluorescent stain in the SVZ region were analyzed. NeuN is a marker expressed on the immature neurons which are differentiated from neural stem cells. GFAP is a marker expressed on astrocytes which are also differentiated from neural stem cells.
The presence of NeuN-positive cells was analyzed using goat anti-NeuN monoclonal antibody. The presence of GFAP-positive cells was analyzed using goat anti-GFAP polyclonal antibody. The presence of BrdU-positive/GFAP-positive cells was analyzed by double-immunofluorescent stain using a combination of primary antibody of mouse anti-rat BrdU monoclonal antibody and secondary antibody of Rho-labeled rabbit anti-mouse antibody, and a combination of primary antibody of goat anti-GFAP polyclonal antibody and secondary antibody of FITC-labeled rabbit anti-goat antibody.
(§6) BRt(%)=(Bt−St)/(Mt−St)×100

In data set [3] the test system is chronic and allergic rhinitis. Description: Chronic and allergic rhinitis patients vs ephedrine nose drops (Example 9). Format: in vivo, human. The source says:
The subjects consisted of 30 patients with chronic and allergic rhinitis, and half of them were randomly assigned to treatment group and control group.
The first solution was a mixed solution made of sodium chlorite with the concentration of 7.47% and sodium chloride with the concentration of 1.59% with deionized water; the second solution was made of citric acid with the concentration of 16.7% with deionized water. The solution comprising chlorine dioxide was made by mixing up the two solutions above. To make 50 ml solution for each patient each time and put it into a bottle and stores it in the refrigerator. 2-5 ml of solution for each patient each time was taken out and put into a beaker. The patients would breathe aiming at the cup-mouth for one to two minutes, and then the solution was diluted five to hundred times with normal saline before being put into nasal spray. To spray on each side of nose for three to five times. It was conducted once a day for consecutive 5 to 10 days. Then the administration was stopped, reuse the administration method for recurrence. The course of treatment was three months. The administration for patients in control group: use the ephedrine nose drops three times a day with three drops on each side each time for consecutive seven days. Reuse the administration method for recurrence. The course of treatment was three months.
Evaluation of the effects: The effects can be divided into excellent, effective and ineffective according to symptoms and signs. 1) Excellent: subjective symptoms disappear and positive sign become normal. 2) Effective: subjective symptoms and positive sign decrease obviously. […] Total effective rate(%)=(No. of excellent cases+No. of effective cases)/total cases×100%. Recurrence rate of rhinitis after treatment means the recurrence rate six months after treatment of all the cases. Table 19 is about the treatment of rhinitis.

The test system of a further data set is rat. The conditions noted are these: ClO2 276.5 mg/L, cited from earlier work.
The subject of data set [4] is BrdU-positive cells (neural stem cells and neural progenitor cells). Description: BrdU-positive and BrdU-positive/nestin-positive (proliferating) cells in the SVZ region. It counts as in vivo, Sprague-Dawley rats. As to conditions: for number of BrdU-positive cells in the SVZ region, proliferation (mean±SD): BrdU on day 5, 6, 12, 13, 19, 20. The method, then: as §1, §2, §3, §4, §5
On day 5, 6, 12, 13, 19 and 20 after the model established, 50 mg/kg of 5-bromodeoxyuridine was injected intraperitoneally into 30 rats in each group. Because BrdU is a thymidine analog, it can incorporate into the DNA of cells during the course of cell proliferation (DNA synthesis). Thus, cell proliferation can be analyzed by detecting the amount of intracellular BrdU. The rats were autopsied on day 7, 14 and 21 after the model established for preparation of frozen brain sections. The presence of BrdU-positive cells by immunochemical stain, and the presence of BrdU-positive/nestin-positive cells by double-immunofluorescent stain in the SVZ region were analyzed.
The presence of BrdU-positive cells was analyzed using mouse anti-rat BrdU monoclonal antibody.
The presence of BrdU-positive/nestin-positive cells was analyzed by double-immunofluorescent stain using a combination of primary antibody of goat anti-rat BrdU polyclonal antibody and secondary antibody of FITC-labeled rabbit anti-goat antibody, and a combination of primary antibody of mouse anti-rat nestin monoclonal antibody and secondary antibody of Rho-labeled rabbit anti-mouse antibody.
as §6

The mark [5] stands for this setting: 30 cases per group, three-month course.

Turning to `[O][Cl+][O-]` [chlorine dioxide solution, chlorine dioxide], the “stimulation score to skin and eye mucous membrane” value in data set [1] was 0. In addition, the “BRt: GFAP-positive cells in treatment group relative to model group = 100%” value is 148.4% in data set [2] (Day 7), 134.3% in data set [2] (Day 14) and 162.4% in data set [2] (Day 21). Further, the “number of GFAP-positive cells in the SVZ (mean±SD)” value in data set [2] (Day 7, model group 66.3 ± 21.3, sham 2.5 ± 0.15, diluted solution via carotid artery once a day, ten days) is recorded as 97.2 ± 29.3 No. of cells/mm2; in data set [2] (Day 14, model group 58.6 ± 16.5, sham 1.39 ± 0.02) it was 78.2 ± 19.6 No. of cells/mm2; in data set [2] (Day 21, model group 27.9 ± 12.4, sham 0), 45.3 ± 18.3 No. of cells/mm2. Further, the “presence of NeuN-positive cells (immature neurons)” value in data set [2] (treatment group, data not shown) was “confirmed”. In addition, the “presence of BrdU-positive/GFAP-positive cells in the SVZ region” value in data set [2] (treatment group, double-immunofluorescent stain, data not shown) is recorded as “confirmed”. Besides, in data set [3] (setting [5]), the “Effective (No. of cases): symptoms and signs decrease obviously” value turned out to be 3. The “Effective rate = (excellent + effective)/total cases” value in data set [3] (setting [5]) stood at 97%. Also, in data set [3] (setting [5]), the “Ineffective (No. of cases)” value was 1. Moreover, in data set [3] (30 cases per group, three-month course, test: NaClO2 7.47% + citric acid 16.7%, breathed 1-2 min then nasal spray diluted 5-100 times, once a day 5 to 10 days, control three times a day seven days), the “Excellent (No. of cases): symptoms disappear, signs normal” value was determined as 26. Besides, the “No. of Recurrences” value in data set [3] (six months after treatment) is listed as 3. Also, the Recurrence rate in data set [3] (six months after treatment) amounted to 10%. Moreover, the “accumulative toxicity classification of aqueous solution” value with rat (NaClO2 200 mg/L, NaClO3) is “non-obvious accumulative toxic”. For the same molecule, the “toxicity classification of aqueous solution” value with rat (NaClO2 and NaClO3 200 mg/L, ClO2 mixed solution total concentration 553 mg/L) is recorded as “actually non-toxic”. The “BRt: BrdU-positive cells (proliferation) in treatment group relative to model group = 100%” value came out at 157.4% in data set [4] (Day 7), 156.9% in data set [4] (Day 14) and 141.2% in data set [4] (Day 21). For the same molecule, the “number of BrdU-positive cells in the SVZ region, proliferation (mean±SD)” value was 184.61 ± 12.3 No. cells/mm2 in data set [4] (Day 7, model group 136.56 ± 9.93, sham 52.8 ± 3.85, diluted solution via carotid artery once a day, ten days); 496.2 ± 30.6 No. cells/mm2 in data set [4] (Day 14, model group 328.6 ± 12.5, sham 33.9 ± 2.95); 385.3 ± 20.9 No. cells/mm2 in data set [4] (Day 21, model group 279.9 ± 12.8, sham 23.9 ± 1.95). For the same molecule, the “presence of proliferating nestin-positive/BrdU-positive cells in the SVZ region” value in data set [4] (treatment group, double-immunofluorescent stain) is reported as “confirmed”.

These data come from patent US20150335678A1, “METHOD OF ACTIVATING STEM CELLS IN AN ANIMAL AND THE USE OF CHLORINE DIOXIDE FOR PREPARING MEDICINES FOR ACTIVATING STEM CELLS IN AN ANIMAL” (priority 2012, published 2015).
